{"source": "patent US20070049593A1", "about": "(priority 2004, published 2007)", "note": "Counter-ions that a name gives are not always drawn."}
{"biological_target": "T1, HCV polymerase (Hepatitis C virus genotype 1b, UniProt P26663)", "T1 construct": "a region encoding NS5B (J Virol 1991 March, 65(3), 1105-13, 544 amino acids after deletion of 47 amino acids on the C-terminal); 6xHis (C); made in house; host or cells: Escherichia coli", "T1 sequence (P26663 2420-2963)": "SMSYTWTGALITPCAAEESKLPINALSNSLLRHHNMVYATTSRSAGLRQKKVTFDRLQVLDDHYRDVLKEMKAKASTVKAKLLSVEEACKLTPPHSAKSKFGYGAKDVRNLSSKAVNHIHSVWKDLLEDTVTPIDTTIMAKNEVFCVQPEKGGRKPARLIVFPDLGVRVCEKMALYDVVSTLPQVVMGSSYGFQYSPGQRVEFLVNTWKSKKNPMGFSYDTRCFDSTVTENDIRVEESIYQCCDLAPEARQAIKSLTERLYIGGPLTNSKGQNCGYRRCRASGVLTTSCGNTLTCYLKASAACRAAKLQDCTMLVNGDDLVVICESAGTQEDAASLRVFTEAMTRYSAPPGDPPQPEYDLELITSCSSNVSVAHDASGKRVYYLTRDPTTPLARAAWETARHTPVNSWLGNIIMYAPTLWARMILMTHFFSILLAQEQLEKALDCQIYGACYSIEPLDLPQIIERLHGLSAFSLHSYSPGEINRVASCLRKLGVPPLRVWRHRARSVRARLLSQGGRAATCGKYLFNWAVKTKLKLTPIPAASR", "test": "biochemical", "set-up": "species or system HCV BK strain", "conditions": "not given", "how_it_was_run": "(§1)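 His-tagged NS5B (BK strain, 47-aa C-terminal deletion, E. coli-expressed) at 0.5 μg/ml copied 5 μg/ml run-off RNA bearing the HCV 3′ UTR with 2 μM UTP plus [3H]UTP, 50 μM ATP/GTP, in pH 7.5 Tris with 5 mM MgCl2, 25 °C, 90 min. TCA-precipitated RNA was counted and IC50 calculated.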", "units": {"IC50": "nM"}}
{"smiles": "CCCS(=O)(=O)NC(=O)c1ccc2c(C3CCCCC3)c3n(c2c1)CCN(CC(=O)N1CCN(CC)CC1)c1ccccc1-3", "note": "[Example 1-129, N-{13-cyclohexyl-5-[2-(4-ethylpiperazin-1-yl)-2-oxoethyl]-6,7-dihydro-5H-benzo[5,6][1,4]diazepino[7,1-a]indole-10-carbonyl}propane-1-sulfonamide dihydrochloride]", "IC50": "< 100"}
{"smiles": "COC(=O)N(C)CCN(C)CCN1CCn2c(c(C3CCCCC3)c3ccc(C(=O)O)cc32)-c2ccccc21", "note": "[Example 1-236, 13-cyclohexyl-5-(2-{N-[2-(N-methoxycarbonyl-N-methylamino)ethyl]-N-methylamino}ethyl)-6,7-dihydro-5H-benzo[5,6][1,4]diazepino[7,1-a]indole-10-carboxylic acid dihydrochloride]", "IC50": "< 100"}
{"smiles": "CSc1ccc2c(c1)N(CCN1CCCC1)CCn1c-2c(C2CCCCC2)c2ccc(C(=O)O)cc21", "note": "[Example 1-303, 13-cyclohexyl-3-methylsulfanyl-5-[2-(pyrrolidin-1-yl)ethyl]-6,7-dihydro-5H-benzo[5,6][1,4]diazepino[7,1-a]indole-10-carboxylic acid dihydrochloride]", "IC50": "< 100"}
{"smiles": "CCN1CCCCC1CCN1CCn2c(c(C3CCCCC3)c3ccc(C(=O)O)cc32)-c2ccc(Cl)cc21", "note": "(centres unmarked) [Example 1-323, 3-chloro-13-cyclohexyl-5-[2-(1-ethylpiperidin-2-yl)ethyl]-6,7-dihydro-5H-benzo[5,6][1,4]diazepino[7,1-a]indole-10-carboxylic acid dihydrochloride]", "IC50": "< 100"}
{"smiles": "O=C(O)c1ccc2c(C3CCCCC3)c3n(c2c1)CCN(CCN1CCC(F)(F)CC1)c1ccccc1-3", "note": "[Example 1-174, 13-cyclohexyl-5-[2-(4,4-difluoropiperidin-1-yl)ethyl]-6,7-dihydro-5H-benzo[5,6][1,4]diazepino[7,1-a]indole-10-carboxylic acid dihydrochloride]", "IC50": "< 100"}
{"smiles": "CC(C)(NC(=O)c1ccc2c(C3CCCCC3)c3n(c2c1)CCOc1ccccc1-3)c1nc(C(=O)O)cs1", "note": "[Example 2-167, 2-{1-[(12-cyclohexyl-6,7-dihydro-5-oxa-7a-azadibenzo[a,e]azulene-9-carbonyl)amino]-1-methylethyl}thiazole-4-carboxylic acid]", "IC50": "< 100"}
{"smiles": "COCc1ccccc1-c1cccc2c1OCCn1c-2c(C2CCCCC2)c2ccc(C(=O)O)cc21", "note": "[Example 2-327, 12-cyclohexyl-4-(2-methoxymethylphenyl)-6,7-dihydro-5-oxa-7a-azadibenzo[a,e]azulene-9-carboxylic acid]", "IC50": "< 100"}
{"smiles": "CNC(=O)COc1ccc(C[C@H](NC(=O)c2ccc3c(C4CCCCC4)c4n(c3c2)CCOc2cc(OC)ccc2-4)C(=O)OC)cc1", "note": "[Example 2-382, methyl (S)-2-[(12-cyclohexyl-3-methoxy-6,7-dihydro-5-oxa-7a-azadibenzo[a,e]azulene-9-carbonyl)amino]-3-[4-(methylcarbamoylmethoxy)phenyl]propionate]", "IC50": "< 100"}
{"smiles": "COCC1CCCCN1CCCN1CCn2c(c(C3CCCCC3)c3ccc(C(=O)O)cc32)-c2ccc(Cl)cc21", "note": "(centres unmarked) [Example 1-355, 3-chloro-13-cyclohexyl-5-[3-(2-methoxymethylpiperidin-1-yl)propyl]-6,7-dihydro-5H-benzo[5,6][1,4]diazepino[7,1-a]indole-10-carboxylic acid dihydrochloride]", "IC50": "< 100"}
{"smiles": "Cc1cccc(COc2ccc3c(c2)N(CCN(C)C)CCn2c-3c(C3CCCCC3)c3ccc(C(=O)O)cc32)n1", "note": "[Example 1-589, 13-cyclohexyl-5-(2-dimethylaminoethyl)-3-(6-methylpyridin-2-ylmethoxy)-6,7-dihydro-5H-benzo[5,6][1,4]diazepino[7,1-a]indole-10-carboxylic acid trihydrochloride]", "IC50": "< 100"}
{"smiles": "CN(C)CCN1CCn2c(c(C3CCCCC3)c3ccc(C(=O)O)cc32)-c2ccc(OCc3ccc(Cl)s3)cc21", "note": "[Example 1-560, 3-(5-chlorothiophen-2-ylmethoxy)-13-cyclohexyl-5-(2-dimethylaminoethyl)-6,7-dihydro-5H-benzo[5,6][1,4]diazepino[7,1-a]indole-10-carboxylic acid dihydrochloride]", "IC50": "< 100"}
{"smiles": "O=C(O)c1ccc2c(C3CCCCC3)c3n(c2c1)CCN(CCN1CCOCC1)c1ccccc1-3", "note": "[Example 1-27, 13-cyclohexyl-5-[2-(morpholin-4-yl)ethyl]-6,7-dihydro-5H-benzo[5,6][1,4]diazepino[7,1-a]indole-10-carboxylic acid dihydrochloride]", "IC50": "< 100"}
{"smiles": "CC(C)(C)OC(=O)NCCOc1ccc2c(c1)OCCn1c-2c(C2CCCCC2)c2ccc(C(=O)O)cc21", "note": "[Example 2-33, 3-[2-(tert-butoxycarbonylamino)ethoxy]-12-cyclohexyl-6,7-dihydro-5-oxa-7a-azadibenzo[a,e]azulene-9-carboxylic acid]", "IC50": "< 100"}
{"smiles": "O=C(O)c1ccc2c(C3CCCCC3)c3n(c2c1)CCOc1c(OCc2ccccc2)cccc1-3", "note": "[Example 2-39, 4-benzyloxy-12-cyclohexyl-6,7-dihydro-5-oxa-7a-azadibenzo[a,e]azulene-9-carboxylic acid]", "IC50": "< 100"}
{"smiles": "CC1CN(CCN2CCn3c(c(C4CCCCC4)c4ccc(C(=O)O)cc43)-c3ccccc32)CCO1", "note": "(centres unmarked) [Example 1-255, 13-cyclohexyl-5-[2-(2-methylmorpholin-4-yl)ethyl]-6,7-dihydro-5H-benzo[5,6][1,4]diazepino[7,1-a]indole-10-carboxylic acid dihydrochloride]", "IC50": "< 100"}
{"smiles": "CCOC(=O)N1CCN(C(=O)CN2CCn3c(c(C4CCCCC4)c4ccc(C(=O)O)cc43)-c3ccccc32)CC1", "note": "[Example 1-46, 13-cyclohexyl-5-[2-(4-ethoxycarbonylpiperazin-1-yl)-2-oxoethyl]-6,7-dihydro-5H-benzo[5,6][1,4]diazepino[7,1-a]indole-10-carboxylic acid monohydrochloride]", "IC50": "< 100"}
{"smiles": "CCOc1ccc2c(c1)N(CCN1CCCC(CC)C1)CCn1c-2c(C2CCCCC2)c2ccc(C(=O)O)cc21", "note": "(centres unmarked) [Example 1-347, 13-cyclohexyl-3-ethoxy-5-[2-(3-ethylpiperidin-1-yl)ethyl]-6,7-dihydro-5H-benzo[5,6][1,4]diazepino[7,1-a]indole-10-carboxylic acid dihydrochloride]", "IC50": "< 100"}
{"smiles": "COc1ccc2c(c1)OCCn1c-2c(C2CCCCC2)c2ccc(C(=O)NC(Cc3ccc(O)cc3)C(C)C)cc21", "note": "(centres unmarked) [Example 2-436, N-[1-(4-hydroxybenzyl)-2-methylpropyl]-12-cyclohexyl-3-methoxy-6,7-dihydro-5-oxa-7a-azadibenzo[a,e]azulene-9-carboxamide]", "IC50": "< 100"}
{"smiles": "O=C(O)c1ccc2c(C3CCCCC3)c3n(c2c1)CCN(CCN1CCCCC1)c1cc(OC(F)(F)F)ccc1-3", "note": "[Example 1-522, 13-cyclohexyl-5-[2-(piperidin-1-yl)ethyl]-3-trifluoromethoxy-6,7-dihydro-5H-benzo[5,6][1,4]diazepino[7,1-a]indole-10-carboxylic acid dihydrochloride]", "IC50": "< 100"}
{"smiles": "CC(C)(NC(=O)c1ccc2c(C3CCCCC3)c3n(c2c1)CCOc1ccccc1-3)C(=O)N1CCN(CCO)CC1", "note": "[Example 2-304, N-{2-[4-(2-hydroxyethyl)piperazin-1-yl]-1,1-dimethyl-2-oxoethyl}-12-cyclohexyl-6,7-dihydro-5-oxa-7a-azadibenzo[a,e]azulene-9-carboxamide]", "IC50": "< 100"}
{"smiles": "CC(C)(C)OC(=O)NC1CCN(C(=O)C(C)(C)NC(=O)c2ccc3c(C4CCCCC4)c4n(c3c2)CCOc2ccccc2-4)CC1", "note": "[Example 2-321, tert-butyl (1-{2-[(12-cyclohexyl-6,7-dihydro-5-oxa-7a-azadibenzo[a,e]azulene-9-carbonyl)amino]-2-methylpropionyl)piperidin-4-yl)carbamate]", "IC50": "< 100"}
{"smiles": "COc1ccc2c(c1)OCCn1c-2c(C2CCCCC2)c2ccc(C(=O)N[C@@H](Cc3ccc(NC(C)=O)cc3)C(=O)O)cc21", "note": "[Example 2-340, (S)-3-(4-acetylaminophenyl)-2-[(12-cyclohexyl-3-methoxy-6,7-dihydro-5-oxa-7a-azadibenzo[a,e]azulene-9-carbonyl)amino]propionic acid]", "IC50": "< 100"}
{"smiles": "COc1ccc2c(c1)OCCn1c-2c(C2CCCCC2)c2ccc(C(=O)N[C@@H](Cc3ccc(NS(C)(=O)=O)cc3)C(=O)O)cc21", "note": "[Example 2-341, (S)-2-[(12-cyclohexyl-3-methoxy-6,7-dihydro-5-oxa-7a-azadibenzo[a,e]azulene-9-carbonyl)amino]-3-(4-methanesulfonylaminophenyl)propionic acid]", "IC50": "< 100"}
{"smiles": "COCCN1CCCC(Oc2cccc3c2OCCn2c-3c(C3CCCCC3)c3ccc(C(=O)O)cc32)C1", "note": "(centres unmarked) [Example 2-470, 12-cyclohexyl-4-[1-(2-methoxyethyl)piperidin-3-yloxy]-6,7-dihydro-5-oxa-7a-azadibenzo[a,e]azulene-9-carboxylic acid monohydrochloride]", "IC50": "< 100"}
{"smiles": "O=C(O)c1ccc2c(C3CCCCC3)c3n(c2c1)CCN(CCN1CCCOCC1)c1cc(Cl)ccc1-3", "note": "[Example 1-169, 3-chloro-13-cyclohexyl-5-[2-(1,4-oxazepan-4-yl)ethyl]-6,7-dihydro-5H-benzo[5,6][1,4]diazepino[7,1-a]indole-10-carboxylic acid monohydrochloride]", "IC50": "< 100"}
{"biological_target": "T1, HCV polymerase", "test": "biochemical", "set-up": "species or system HCV BK strain", "conditions": "read-out: HCV polymerase inhibitory activity IC50; 25° C., 90 min; [5,6-3H]UTP incorporation into RNA", "how_it_was_run": "as §1", "units": {"IC50": "nM"}}
{"smiles": "COc1ccc2c(c1)OCCn1c-2c(C2CCCCC2)c2ccc(C(=O)NC(C)(C)c3ncc(-c4ccc(C(=O)O)cc4)[nH]3)cc21", "note": "[Example 2-540, 4-(2-{1-[(12-cyclohexyl-3-methoxy-6,7-dihydro-5-oxa-7a-azadibenzo[a,e]azulene-9-carbonyl)amino]-1-methylethyl}-3H-imidazol-4-yl)benzoic acid monohydrochloride]", "IC50": "< 100"}
